Measured values published in ChEMBL document CHEMBL5465560, “Selectivity Literature for EUbOPEN Chemogenomic Library” (2024).
One block for each compound: values may come before it.

Experiments:
[1] = molecular target: T1, Serine/threonine-protein kinase DCLK2 (Homo sapiens) (UniProt Q8N568); assay: Selectivity interaction (KinomeScan (DiscoverX)) EUB0001049a DCLK2; conditions: at 1 µM
T1 sequence (whole entry): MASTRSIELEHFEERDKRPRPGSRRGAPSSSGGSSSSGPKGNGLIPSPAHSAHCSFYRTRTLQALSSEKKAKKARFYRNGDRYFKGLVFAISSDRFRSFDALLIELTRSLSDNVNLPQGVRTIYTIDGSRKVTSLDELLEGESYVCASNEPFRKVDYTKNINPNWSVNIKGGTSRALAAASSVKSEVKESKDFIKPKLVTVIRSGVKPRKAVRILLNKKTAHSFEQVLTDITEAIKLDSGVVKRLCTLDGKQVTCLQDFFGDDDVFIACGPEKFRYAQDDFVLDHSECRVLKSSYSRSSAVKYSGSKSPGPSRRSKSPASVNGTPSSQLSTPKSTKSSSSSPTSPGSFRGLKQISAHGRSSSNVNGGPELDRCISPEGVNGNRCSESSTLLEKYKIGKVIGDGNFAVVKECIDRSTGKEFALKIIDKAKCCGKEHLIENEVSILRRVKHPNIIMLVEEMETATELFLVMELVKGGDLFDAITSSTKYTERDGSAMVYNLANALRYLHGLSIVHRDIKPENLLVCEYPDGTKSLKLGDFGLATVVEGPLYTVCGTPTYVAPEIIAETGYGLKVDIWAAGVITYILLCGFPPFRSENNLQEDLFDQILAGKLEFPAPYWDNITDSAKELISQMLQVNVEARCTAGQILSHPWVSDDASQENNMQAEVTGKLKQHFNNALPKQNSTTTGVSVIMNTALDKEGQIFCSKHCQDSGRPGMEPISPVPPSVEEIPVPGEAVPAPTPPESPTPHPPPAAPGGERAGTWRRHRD

[2] = molecular target: NT-3 growth factor receptor (Homo sapiens, UniProt Q16288); assay: Selectivity interaction (KinomeScan (DiscoverX)) EUB0001049a NTRK3; conditions: at 1 µM
[3] = molecular target: T2, Serine/threonine-protein kinase TBK1 (Homo sapiens) (UniProt Q9UHD2); assay: Selectivity interaction (Kinase panel (Invitrogen)) EUB0000639a TBK1; conditions: at 200 nM
T2 sequence (whole entry): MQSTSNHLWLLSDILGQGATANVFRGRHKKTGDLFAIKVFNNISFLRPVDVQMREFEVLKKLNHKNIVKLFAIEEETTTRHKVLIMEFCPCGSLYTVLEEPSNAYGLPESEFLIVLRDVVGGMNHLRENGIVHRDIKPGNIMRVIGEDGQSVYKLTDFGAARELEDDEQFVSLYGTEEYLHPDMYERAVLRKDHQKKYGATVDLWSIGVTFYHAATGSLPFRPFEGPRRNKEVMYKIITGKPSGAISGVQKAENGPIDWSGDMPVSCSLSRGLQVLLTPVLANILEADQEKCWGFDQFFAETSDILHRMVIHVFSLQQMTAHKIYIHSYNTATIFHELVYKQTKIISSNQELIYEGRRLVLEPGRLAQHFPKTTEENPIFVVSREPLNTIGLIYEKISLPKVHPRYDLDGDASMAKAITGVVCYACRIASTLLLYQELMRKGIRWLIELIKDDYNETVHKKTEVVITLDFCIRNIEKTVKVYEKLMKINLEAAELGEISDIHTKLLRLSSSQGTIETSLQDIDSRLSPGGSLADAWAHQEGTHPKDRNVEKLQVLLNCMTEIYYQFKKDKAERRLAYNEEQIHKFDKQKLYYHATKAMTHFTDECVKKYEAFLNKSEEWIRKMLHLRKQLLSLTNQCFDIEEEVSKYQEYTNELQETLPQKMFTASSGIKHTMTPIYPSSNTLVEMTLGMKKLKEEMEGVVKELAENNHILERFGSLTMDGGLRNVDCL

[4] = molecular target: T3, Mitogen-activated protein kinase 13 (Homo sapiens) (UniProt O15264); assay: Selectivity interaction (KinomeScan (DiscoverX)) EUB0000595a MAPK13; conditions: at 10 µM
T3 sequence (whole entry): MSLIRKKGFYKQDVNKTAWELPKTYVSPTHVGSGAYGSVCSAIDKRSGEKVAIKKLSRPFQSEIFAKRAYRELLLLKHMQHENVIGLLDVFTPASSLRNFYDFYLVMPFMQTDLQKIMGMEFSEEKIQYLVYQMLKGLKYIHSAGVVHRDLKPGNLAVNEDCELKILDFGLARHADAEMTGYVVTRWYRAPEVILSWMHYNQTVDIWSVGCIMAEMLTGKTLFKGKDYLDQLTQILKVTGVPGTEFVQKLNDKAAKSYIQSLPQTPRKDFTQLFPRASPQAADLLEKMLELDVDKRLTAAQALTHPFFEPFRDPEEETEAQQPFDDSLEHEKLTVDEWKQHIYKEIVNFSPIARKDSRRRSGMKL

[5] = molecular target: T4, Serine/threonine-protein kinase 4 (Homo sapiens) (UniProt Q13043); assay: Selectivity interaction (KinomeScan (DiscoverX)) EUB0001079a STK4; conditions: at 1 µM
T4 sequence (whole entry): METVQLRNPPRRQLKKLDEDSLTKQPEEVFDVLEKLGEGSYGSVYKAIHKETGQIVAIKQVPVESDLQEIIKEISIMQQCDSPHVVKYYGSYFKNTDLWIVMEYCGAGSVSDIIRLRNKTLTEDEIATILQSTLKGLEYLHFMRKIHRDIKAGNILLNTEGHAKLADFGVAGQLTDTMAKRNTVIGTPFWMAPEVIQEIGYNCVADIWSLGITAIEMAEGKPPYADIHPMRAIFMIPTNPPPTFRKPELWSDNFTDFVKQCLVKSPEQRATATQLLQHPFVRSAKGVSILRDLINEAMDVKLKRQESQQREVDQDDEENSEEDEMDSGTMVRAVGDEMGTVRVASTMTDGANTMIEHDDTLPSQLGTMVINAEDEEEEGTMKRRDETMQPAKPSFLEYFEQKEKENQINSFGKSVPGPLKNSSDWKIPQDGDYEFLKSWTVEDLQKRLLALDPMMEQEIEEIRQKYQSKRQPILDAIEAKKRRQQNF

[6] = molecular target: Tyrosine-protein kinase Fyn (Homo sapiens) (UniProt P06241); assay: Selectivity interaction (Upstate Kinase Profiler service (Millipore)) EUB0000056c FYN; conditions: at 1 µM
[7] = molecular target: T5, Serine/threonine-protein kinase 17B (Homo sapiens) (UniProt O94768); assay: Selectivity interaction (Kinase panel (DSF assay)) EUB0001558a STK17B
T5 sequence (whole entry): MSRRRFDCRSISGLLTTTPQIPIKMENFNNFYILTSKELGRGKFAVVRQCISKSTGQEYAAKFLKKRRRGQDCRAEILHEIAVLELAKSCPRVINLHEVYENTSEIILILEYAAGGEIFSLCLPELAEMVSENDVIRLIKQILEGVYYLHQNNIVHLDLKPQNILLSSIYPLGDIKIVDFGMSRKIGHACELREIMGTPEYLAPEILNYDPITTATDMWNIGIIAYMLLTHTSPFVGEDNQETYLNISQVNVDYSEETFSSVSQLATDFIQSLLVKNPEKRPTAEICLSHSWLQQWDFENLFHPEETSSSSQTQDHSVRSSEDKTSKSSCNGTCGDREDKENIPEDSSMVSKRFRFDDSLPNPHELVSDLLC

Sequence of NT-3 growth factor receptor (Q16288 32-839 limits assumed): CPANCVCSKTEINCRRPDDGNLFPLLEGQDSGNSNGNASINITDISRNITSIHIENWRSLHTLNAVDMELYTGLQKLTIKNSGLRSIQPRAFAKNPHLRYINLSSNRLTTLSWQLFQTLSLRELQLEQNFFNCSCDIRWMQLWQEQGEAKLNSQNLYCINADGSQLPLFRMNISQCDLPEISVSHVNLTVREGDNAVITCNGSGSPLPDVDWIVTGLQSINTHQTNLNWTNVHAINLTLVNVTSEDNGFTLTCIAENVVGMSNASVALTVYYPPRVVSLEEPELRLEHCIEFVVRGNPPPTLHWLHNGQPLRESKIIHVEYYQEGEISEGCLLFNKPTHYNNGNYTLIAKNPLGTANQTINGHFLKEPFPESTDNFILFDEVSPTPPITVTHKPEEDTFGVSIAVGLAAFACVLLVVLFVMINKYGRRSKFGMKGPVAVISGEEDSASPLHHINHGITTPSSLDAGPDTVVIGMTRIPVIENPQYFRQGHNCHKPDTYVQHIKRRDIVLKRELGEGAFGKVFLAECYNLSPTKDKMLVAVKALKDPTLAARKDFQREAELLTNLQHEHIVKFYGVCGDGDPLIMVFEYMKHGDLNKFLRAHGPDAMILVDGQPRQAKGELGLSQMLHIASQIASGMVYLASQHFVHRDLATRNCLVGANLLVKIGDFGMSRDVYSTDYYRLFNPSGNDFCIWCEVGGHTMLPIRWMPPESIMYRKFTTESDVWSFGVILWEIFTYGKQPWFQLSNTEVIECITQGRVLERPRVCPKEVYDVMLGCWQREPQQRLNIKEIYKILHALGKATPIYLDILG
Sequence of Tyrosine-protein kinase Fyn (Homo sapiens) (P06241 2-537 limits assumed): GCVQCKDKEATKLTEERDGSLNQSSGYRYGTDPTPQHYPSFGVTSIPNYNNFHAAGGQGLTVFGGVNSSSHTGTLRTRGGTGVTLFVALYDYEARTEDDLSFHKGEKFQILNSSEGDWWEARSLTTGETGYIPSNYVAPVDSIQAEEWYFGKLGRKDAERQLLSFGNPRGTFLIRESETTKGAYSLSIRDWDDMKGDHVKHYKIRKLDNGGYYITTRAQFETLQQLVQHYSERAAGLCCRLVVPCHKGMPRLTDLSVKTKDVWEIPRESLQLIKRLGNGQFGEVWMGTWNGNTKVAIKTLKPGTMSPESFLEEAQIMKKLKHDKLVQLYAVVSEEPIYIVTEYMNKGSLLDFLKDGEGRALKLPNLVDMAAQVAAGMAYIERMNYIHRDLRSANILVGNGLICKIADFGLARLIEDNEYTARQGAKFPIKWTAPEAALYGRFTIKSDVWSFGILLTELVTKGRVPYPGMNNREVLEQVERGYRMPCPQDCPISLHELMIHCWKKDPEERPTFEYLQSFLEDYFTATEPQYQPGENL

SMILES: COc1cc(Nc2nc(C)cc(-c3cnn4nc(OC)ccc34)n2)cc(C(F)(F)F)c1
% of control [1]: 84%
% of control [2]: 84%

% of inhibition [3]: 7.67%
SMILES: CC[C@@H]1[C@H](F)C(=O)N[C@@H]1COc1nccc2cc(C(N)=O)c(OC)cc12 [ZIMLOVISERTIB]

SMILES: COCC(=O)NC/C=C/c1ccc2ncnc(Nc3ccc(Oc4ccc(C)nc4)c(C)c3)c2c1 [CP-724714]
% of control [4]: 100%

SMILES: Nc1cnc(N2CCc3cc(S(=O)(=O)Nc4c(F)cc(Cl)cc4F)cc(N4CCCC4=O)c32)nc1 [TP-020n]
% of control [5]: 100%

% of inhibition [6]: 24%
SMILES: Cc1ccc(-c2ccc3c(ccc4sc5c(c43)NC[C@@H](C)NC5=O)n2)cn1

SMILES: CC(C)(O)[C@H](F)CN1Cc2cc(NC(=O)c3cnn4cccnc34)c(N3CCOCC3)cc2C1=O
dTM [7]: 1.7 K
